Values after ≈ are worked out from the molar mass of the structure shown.
Assays:
[1] = target: T1, Poly [ADP-ribose] polymerase 1 (Homo sapiens, UniProt P09874); experiment: Inhibitory activity against PARP1
[2] = target: T1, Poly [ADP-ribose] polymerase 1; settings: HeLa
Description: Ratio of inhibition of HeLa cell proliferation by MMS alone against MMS with PARP inhibitors

[3] = organism: Mus musculus; experiment: Intrinsic clearance in mouse hepatic microsomes; assay type: ADME, Liver, Microsome
[4] = Half life in rat at 10 mg/kg, iv; assay type: ADME, organism-based; design: dose 10 mg/kg, route intravenous; settings: in vivo
[5] = Clearance in rat at 10 mg/kg, iv; assay type: ADME, organism-based; design: dose 10 mg/kg, route intravenous; settings: in vivo
[6] = Volume of distribution in rat at 10 mg/kg, iv; assay type: ADME, organism-based; design: dose 10 mg/kg, route intravenous; settings: in vivo, read-out: Vdss
[7] = Aqueous solubility at pH 7.4; assay type: physicochemical
[8] = tested on: CAPAN-1; experiment: Activity against BRCA2-deficient cells; assay type: functional, Homo sapiens
[9] = tested on: RKO; experiment: Activity against wild type cells; assay type: functional, Homo sapiens

T1 sequence (P09874 whole entry): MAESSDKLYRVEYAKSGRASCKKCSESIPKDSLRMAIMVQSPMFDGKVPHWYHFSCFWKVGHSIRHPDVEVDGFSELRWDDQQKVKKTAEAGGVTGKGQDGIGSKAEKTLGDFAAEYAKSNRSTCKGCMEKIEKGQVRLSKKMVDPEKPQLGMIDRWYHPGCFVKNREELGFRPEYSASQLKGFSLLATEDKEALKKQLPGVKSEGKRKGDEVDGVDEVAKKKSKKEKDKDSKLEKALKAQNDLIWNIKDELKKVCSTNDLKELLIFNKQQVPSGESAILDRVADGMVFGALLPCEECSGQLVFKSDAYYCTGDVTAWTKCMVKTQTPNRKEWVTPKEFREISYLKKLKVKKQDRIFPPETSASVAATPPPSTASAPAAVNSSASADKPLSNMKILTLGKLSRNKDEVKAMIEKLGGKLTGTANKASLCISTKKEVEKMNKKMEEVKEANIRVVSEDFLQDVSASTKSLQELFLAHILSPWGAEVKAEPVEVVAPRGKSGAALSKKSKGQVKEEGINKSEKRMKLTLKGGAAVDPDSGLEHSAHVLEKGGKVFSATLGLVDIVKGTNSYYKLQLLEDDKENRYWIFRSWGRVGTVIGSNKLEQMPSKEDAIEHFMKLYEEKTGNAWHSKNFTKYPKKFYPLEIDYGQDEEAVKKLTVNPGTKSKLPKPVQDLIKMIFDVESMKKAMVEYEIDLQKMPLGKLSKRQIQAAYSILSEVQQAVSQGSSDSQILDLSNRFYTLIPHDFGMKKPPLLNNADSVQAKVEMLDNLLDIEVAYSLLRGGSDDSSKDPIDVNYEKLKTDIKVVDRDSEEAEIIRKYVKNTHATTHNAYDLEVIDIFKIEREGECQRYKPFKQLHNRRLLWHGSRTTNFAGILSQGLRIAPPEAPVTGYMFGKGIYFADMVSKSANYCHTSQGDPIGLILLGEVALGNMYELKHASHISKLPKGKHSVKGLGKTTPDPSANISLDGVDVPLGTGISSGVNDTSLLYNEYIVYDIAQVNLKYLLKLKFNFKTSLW

| Compound | IC50 [1] [nM] | PF50 [2] | other results |
| --- | --- | --- | --- |
| O=C(NC1CCCC1)C1CCN(C(=O)c2cccc(Cc3nnc(O)c4ccccc34)c2)CC1 | 15 | 2.5 |  |
| CC1CCN(C(=O)C2CCN(C(=O)c3cccc(Cc4n[nH]c(=O)c5ccccc45)c3)CC2)CC1 | 8 |  |  |
| CCOC(=O)C1CCN(C(=O)c2cccc(Cc3nnc(O)c4ccccc34)c2)CC1 |  | 2.1 |  |
| O=C(c1cccc(Cc2n[nH]c(=O)c3ccccc23)c1)N1CCCN(CC2CC2)CC1 | 14 |  |  |
| CCCN1CCCN(C(=O)c2cc(Cc3nnc(O)c4ccccc34)ccc2F)CC1 | 5 | 7 |  |
| Cc1noc(C)c1S(=O)(=O)N1CCCN(C(=O)c2cccc(Cc3n[nH]c(=O)c4ccccc34)c2)CC1 | 12 |  |  |
| O=C(NCCc1cccs1)C1CCN(C(=O)c2cccc(Cc3nnc(O)c4ccccc34)c2)CC1 | 8 | 2.8 |  |
| CC1CCN(C(=O)C2CCN(C(=O)c3cccc(Cc4nnc(O)c5ccccc45)c3)CC2)CC1 |  | 4.4 |  |
| CN(C)CCN(C)C(=O)c1cccc(Cc2nnc(O)c3ccccc23)c1 | 46 | 2.2 |  |
| CC(C)CNC(=O)C1CCN(C(=O)c2cccc(Cc3nnc(O)c4ccccc34)c2)CC1 | 16 | 2 |  |
| COc1cc(C(=O)N2CCCN(C(=O)c3cccc(Cc4n[nH]c(=O)c5ccccc45)c3)CC2)cc(Cl)n1 | 9 |  |  |
| O=C(c1cccc(Cc2nnc(O)c3ccccc23)c1)N1CCCN(S(=O)(=O)c2ccc(-c3ccccc3)cc2)CC1 |  | 3.2 |  |
| CCN1CCCN(C(=O)c2cc(Cc3nnc(O)c4ccccc34)ccc2F)CC1 |  | 6.7 |  |
| CN1CCCN(C(=O)c2cccc(Cc3nnc(O)c4ccccc34)c2)CC1 | 23 | 1.8 |  |
| O=C(c1cccc(Cc2nnc(O)c3ccccc23)c1)N1CCOCC1 |  | 1.2 |  |
| CN1CCCN(C(=O)c2cc(Cc3nnc(O)c4ccccc34)ccc2F)CC1 | 9 | 5.5 |  |
| CCC(C)CN(C)C(=O)C1CCN(C(=O)c2cccc(Cc3n[nH]c(=O)c4ccccc34)c2)CC1 (stereo unspecified) | 9 |  |  |
| O=C(c1cc(Cc2n[nH]c(=O)c3ccccc23)ccc1F)N1CCCN(CC2CC2)CC1 | 5 |  |  |
| COc1cc2c(cc1OC)CN(C(=O)C1CCN(C(=O)c3cccc(Cc4nnc(O)c5ccccc45)c3)CC1)CC2 |  | 4.1 |  |
| CCOC(=O)C1CCN(C(=O)c2cccc(Cc3n[nH]c(=O)c4ccccc34)c2)CC1 | 15 |  |  |
| COc1cccc(CCC(=O)N2CCCN(C(=O)c3cccc(Cc4nnc(O)c5ccccc45)c3)CC2)c1 | 8 | 2.5 |  |
| COc1cc(C(=O)N2CCCN(C(=O)c3cccc(Cc4nnc(O)c5ccccc45)c3)CC2)cc(Cl)n1 |  | 2.5 |  |
| O=C(c1cccc(Cc2nnc(O)c3ccccc23)c1)N1CCC(C(=O)N2CCCCC2)CC1 | 15 | 3.9 |  |
| O=C(c1cccc(Cc2nnc(O)c3ccccc23)c1)N1CCCN(C2CCCCC2)CC1 | 6 | 6.6 |  |
| O=C(c1cccc(Cc2n[nH]c(=O)c3ccccc23)c1)N1CCOCC1 | 40 |  |  |
| O=C(c1cc(Cc2n[nH]c(=O)c3ccccc23)ccc1F)N1CCCNCC1 | 7 | 12.6 | half-life [4]: 1 h; clearance [5]: 54 mL/min/kg; Vd [6]: 2.1 L/kg; solubility [7]: 5100 µg/mL (≈ 13.4 mM); SF50 [8]: 15 nM; SF50 [9]: 2 µM |
| Cc1noc(C)c1S(=O)(=O)N1CCCN(C(=O)c2cccc(Cc3nnc(O)c4ccccc34)c2)CC1 |  | 2.1 |  |
| O=C(c1cccc(Cc2nnc(O)c3ccccc23)c1)N1CCCNCC1 |  | 2.4 |  |
| CCN1CCCN(C(=O)c2cccc(Cc3nnc(O)c4ccccc34)c2)CC1 | 15 | 2.6 |  |
| O=C(c1cccc(Cc2nnc(O)c3ccccc23)c1)N1CCc2ccccc2C1 | 8 | 3.4 |  |

The next lines start with results.

| IC50 [1] [nM] | PF50 [2] | Compound | other results |
| --- | --- | --- | --- |
|  | 2.1 | O=C(c1cccc(Cc2nnc(O)c3ccccc23)c1)N1CCCN(S(=O)(=O)c2cccc(C(F)(F)F)c2)CC1 |  |
|  | 2.3 | CCC(=O)Nc1cccc(Cc2n[nH]c(=O)c3ccccc23)c1 | CL [3]: 12 mL/min/g |
| 16 |  | COc1cc2c(cc1OC)CN(C(=O)C1CCN(C(=O)c3cccc(Cc4n[nH]c(=O)c5ccccc45)c3)CC1)CC2 |  |
|  | 2.2 | COc1ccc(NC(=O)N2CCCN(C(=O)c3cccc(Cc4nnc(O)c5ccccc45)c3)CC2)cc1 |  |
|  | 6.3 | O=C(c1cc(Cc2nnc(O)c3ccccc23)ccc1F)N1CCCN(C2CCCCC2)CC1 |  |
|  | 2.6 | CCC(C)CN(C)C(=O)C1CCN(C(=O)c2cccc(Cc3nnc(O)c4ccccc34)c2)CC1 (stereo unspecified) |  |
|  | 3.7 | O=C(c1cccc(Cc2n[nH]c(=O)c3ccccc23)c1)N1CCNCC1 |  |
| 9 |  | O=C(c1cccc(Cc2n[nH]c(=O)c3ccccc23)c1)N1CCCNCC1 |  |
| 9 | 2.1 | CN(Cc1ccccc1)C(=O)C1CCN(C(=O)c2cccc(Cc3nnc(O)c4ccccc34)c2)CC1 |  |
| 10 |  | CCCN1CCCN(C(=O)c2cccc(Cc3n[nH]c(=O)c4ccccc34)c2)CC1 |  |
|  | 3.1 | O=C(c1cccc(Cc2nnc(O)c3ccccc23)c1)N1CCCN(CC2CC2)CC1 |  |
|  | 2.1 | CCNC(=O)c1cccc(Cc2n[nH]c(=O)c3ccccc23)c1 | CL [3]: < 1 mL/min/g |
|  | 6.7 | O=C(c1cc(Cc2nnc(O)c3ccccc23)ccc1F)N1CCCN(CC2CC2)CC1 |  |
|  | 2.5 | CCCN1CCCN(C(=O)c2cccc(Cc3nnc(O)c4ccccc34)c2)CC1 |  |

— ChEMBL document CHEMBL1138134, “Phthalazinones 2: Optimisation and synthesis of novel potent inhibitors of poly(ADP-ribose)polymerase” (Bioorg Med Chem Lett, 2006)
